According to PubChem BioAssay (NCI):
Values joined by “and” are separate entries in the source; they are usually repeats but may differ in a detail not shown here. Equal values may be shown once.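 Cultured in 96-well plates, cells were exposed to test compound for 48 hours across five concentrations. At the GI50, growth is halved. The concentration for full growth arrest is given as TGI.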 Where a SMILES comes first, the peptide text is derived from it. Bridges are numbered along the chain shown (N, C = ends). [ ]: non-standard residue; d: D form. ξ: configuration not given here. ξThr(3R) = C[C@@H](O)C(N)C(=O)O; S5 = C=CCCC[C@](C)(N)C(=O)O

Test system: MDA-MB-468 breast
Assay: inhibition of tumour cell growth, NCI panel, 48 h

| SMILES | GI50 | TGI |
| --- | --- | --- |
| Cc1ccc(-c2nc(N3CCNCC3)c3oc(-c4ccccc4)nc3n2)cc1 | 1.81 µM | 3.8 µM |
| Clc1ccc(Nc2nc(Nc3ccccc3)nc(Nc3ccc(-c4cc(-c5ccc(Cl)cc5)on4)cc3)n2)cc1 | 26 µM | > 100 µM |
| O=C1c2cccnc2C(=O)c2c1c(C(=O)NCCn1ccnc1)c1ccccn21 | 2.34 µM | 5.61 µM |
| O=C(Nc1cccc(-n2cc(-c3ccncc3)c(-c3ccc(O)c(Cl)c3)n2)c1)c1cc(C(F)(F)F)cc(C(F)(F)F)c1 | 3.8 µM | 46 µM |
| CC(c1ccccc1)[C@@H](C(=O)Nc1ccc(I)cc1F)N1C(=O)N[C@H](c2ccc(OC[C@H](O)CO)cc2)C1=O (stereo not given in full) | 11.5 µM | > 25 µM |
| COc1cccc(C2=C(c3cn(C)c4cc(F)ccc34)C(=O)NC2=O)c1 | 13.5 µM | > 25 µM |
| O=C(Cc1csc2nc(-c3ccc(Cl)cc3)cn12)N/N=C/c1ccccc1O | 1.57 µM | 4.92 µM |
| COc1ccccc1/C=C/C1=C(C)CCC(c2ccccc2OC)C1C (stereo not given) | 0.118 µM | > 100 µM |
| CC(C)(C)NC(=O)[C@H]1CC[C@H]2[C@@H]3CC[C@H]4NC(=O)C=C[C@]4(C)[C@H]3CC[C@]12C | 63 µM and > 100 µM | > 100 µM |
| Nc1nnnc2nc[nH]c12 | 0.369 µM |  |
| CCN(CC)c1ccc2nc3c4ccccc4c(=O)cc-3n(-c3ccccc3)c2c1 | 0.333 µM | 1.98 µM |
| Cc1ccc(NC(=O)Nc2c(Cl)cccc2Cl)cn1 | 3.12 µM | 12.5 µM |
| COc1ccc2nc3cc([N+](=O)[O-])ccc3c(NNc3ccccc3)c2c1 | 0.616 µM | 5.37 µM |
| CCOc1ccc2c(c1)CN(Cc1ccc(Cl)cc1)CO2 | 16.3 µM | 34.9 µM |
| O=c1c2ccccc2nc(-c2ccccc2Cl)n1-c1nnc(C(F)(F)F)s1 | 2.29 µM | 7.81 µM |
| O=C(Nc1ccc(-n2ccc3c(NC(=O)c4ccccc4)nccc32)cc1)Nc1cccc(C(F)(F)F)c1 | 2.47 µM | 10.5 µM |
| COc1ccc(-c2nn(-c3ccc(NC(=O)c4cc(Cl)cc(Cl)c4)cc3)cc2-c2ccncc2)cc1Cl | 7.06 µM | > 100 µM |
| CCOC(=O)/C(C#N)=C1\SS/C(=C(/C#N)C(=O)OCC)S1 | 15.6 µM | 33 µM |
| c1ccc(-c2n(Cc3ccc4ccccc4c3)cc[n+]2Cc2ccc3ccccc3c2)cc1 | 0.245 µM | 1.18 µM |
| CCOC(=O)c1c(NC(=O)c2ccccc2)sc2c3c(ccc12)OCN(C)C3 | 1.52 µM | 3.14 µM |
| COc1ccc(Cl)cc1Nc1nc(C(F)(F)F)ccc1C(=O)N/N=C/c1cccnc1 | 0.797 µM | 4.66 µM |
| NC(Cc1c[nH]c2ccc(F)cc12)C(=O)O (stereo not given) | 649 µM | > 2500 µM |

| SMILES | GI50 | TGI |
| --- | --- | --- |
| OCc1ccc(N2CCc3cc(F)ccc3C2)cc1Cl | 0.0101 µM | < 0.0182 µM |
| COc1cc(/C=C/C(=O)/C=C/c2cc3ccc(Cl)cc3n(Cc3ccccc3)c2=O)ccc1O | 1.65 µM | 5.2 µM |
| Cc1ccc(/C=C/c2c(C(=O)/C=C/c3ccc(Cl)cc3)c(C)nc3ccccc23)cc1 | 2.01 µM | 3.82 µM |
| C=C1C(=O)O[C@H]2[C@H]1CC/C(Cn1cc(-c3cccc(Cl)c3)nn1)=C\CC[C@@]1(C)O[C@@H]21 | 0.569 µM | 2.14 µM |
| NC1=NC(=O)/C(=C/c2ccc3ncccc3c2)S1 | > 17.1 µM | > 25 µM |
| COc1ccc(Cn2cc3c(c2)-c2oncc2CC3)cc1OC | 0.0854 µM | 0.254 µM |
| Cc1ccc(Cl)cc1NC(=O)c1cc2ccccc2cc1O | 1.31 µM | 7.25 µM |
| CN1CCN(c2ccc(NC(=O)c3cncnc3Nc3ccc(OCc4cccc(F)c4)c(Cl)c3)cc2)CC1 | 1.71 µM | 8.75 µM |
| Clc1ccc2ncc(-c3cccc(NC4CNC4)n3)n2c1 | 4.86 µM | 20.5 µM |
| Cc1nc(-c2cnc(NC(C)C)n(C)c2=O)ccc1Oc1ccnc(-c2cnn(C)c2)c1 | 3.01 µM | 73.9 µM |
| Nc1cc(C(F)(F)F)c(-c2cc(N3CCOCC3)nc(N3CCOCC3)n2)cn1 | 0.329 µM and 0.216 µM | 2.5 µM and 1.41 µM |
| CC(=O)N[C@H](C(=O)N[C@@H](CCCNC(=N)N)C(=O)N[C@@H](CCCCN)C(=O)N[C@@H](CCCNC(=N)N)C(=O)NC(C(=O)N[C@@H](CC(C)C)C(=O)N[C@@H](CCCNC(=N)N)C(=O)N[C@@]1(C)CCC/C=C\CCC[C@@](C)(C(=O)N[C@@H](CCCNC(=N)N)C(=O)N[C@@H](CCC(=O)O)C(=O)N[C@@H](CC(C)C)C(=O)N[C@H](C(=O)N[C@@H](CCC(=O)O)C(N)=O)C(C)C)NC(=O)[C@H](CCC(N)=O)NC(=O)[C@H](CC(C)C)NC(=O)[C@H](CC(C)C)NC1=O)[C@@H](C)O)C(C)C (stereo partly drawn) (Ac-VRKR[ξThr(3R)]LR[S5]LLQ[S5]RELVE-NH2; staple (Z) 8-12) | 7.65 µM | 18.4 µM |
| C[C@@H](NC(=O)c1ncnc(N)c1Cl)c1ncc(C(=O)Nc2cc(C(F)(F)F)c(Cl)cn2)s1 | 19.1 µM | 52.5 µM |
| O=C1c2ccccc2C(=O)c2c1ccc1c(=O)n(-c3ccccc3C(F)(F)F)nnc21 | 1.43 µM | 3.71 µM |
| COc1cc(/C=C/C(=O)N2CCC=CC2=O)cc(OC)c1OC | 1.73 µM | 4.7 µM |
| COc1ccc(C(=O)O[C@H]2[C@H](O[C@H]3[C@@H](O)COC(O[C@H]4C[C@H]5[C@@H]6CC=C7C[C@@H](O)CC[C@]7(C)[C@H]6CC[C@]5(C)[C@H]4[C@H](C)C(=O)CCC(C)C)[C@@H]3OC(C)=O)OC[C@@H](O)[C@@H]2O)c(C)c1 (stereo not given in full) | 0.0104 µM | 4.89 µM |
| CCN(CC)CCC(CNc1ccnc2cc(Cl)ccc12)c1ccccc1 (stereo not given) | 2.16 µM | 5.69 µM |
| CC[C@]1(O)CC2CN(CCc3c([nH]c4ccccc34)[C@@](C(=O)OC)(c3cc4c(cc3OC)N(C=O)[C@H]3[C@@](O)(C(=O)OC)[C@H](OC(C)=O)[C@]5(CC)C=CCN6CC[C@]43[C@@H]65)C2)C1 (stereo not given in full) | < 0.005 µM | > 28.5 µM |
| COc1ccc(-c2[nH]nc(N)c2-c2cc(OC)c3c(c2)OCO3)cc1 | 1.86 µM | 6.28 µM |
| CCCCCCCCCCCCCCCCCCOc1ccccc1CC(=O)OCC[N+](CC)(CC)CC | 0.904 µM | 2.15 µM |
| NC(=O)CC1(O)C=C(Br)C(=O)C(Br)=C1 | 1.75 µM | 7.22 µM |
